The results in this text go back to US5635502A, “Mercaptoacetylamide bicyclic lactam derivatives useful as inhibitors of enkephalinase and ACE” (Merrell Pharmaceuticals Inc., priority 1995, dated 1997).

The target of this experiment is T1, Enkephalinase (endopeptidase-24.11) partially purified from rat kidney (Rattus norvegicus, UniProt P07861).
T1 construct: Enkephalinase is partially purified from rat kidney; from tissue; host or cells: rat kidney, microvilli fraction
T1 sequence (P07861 1-750): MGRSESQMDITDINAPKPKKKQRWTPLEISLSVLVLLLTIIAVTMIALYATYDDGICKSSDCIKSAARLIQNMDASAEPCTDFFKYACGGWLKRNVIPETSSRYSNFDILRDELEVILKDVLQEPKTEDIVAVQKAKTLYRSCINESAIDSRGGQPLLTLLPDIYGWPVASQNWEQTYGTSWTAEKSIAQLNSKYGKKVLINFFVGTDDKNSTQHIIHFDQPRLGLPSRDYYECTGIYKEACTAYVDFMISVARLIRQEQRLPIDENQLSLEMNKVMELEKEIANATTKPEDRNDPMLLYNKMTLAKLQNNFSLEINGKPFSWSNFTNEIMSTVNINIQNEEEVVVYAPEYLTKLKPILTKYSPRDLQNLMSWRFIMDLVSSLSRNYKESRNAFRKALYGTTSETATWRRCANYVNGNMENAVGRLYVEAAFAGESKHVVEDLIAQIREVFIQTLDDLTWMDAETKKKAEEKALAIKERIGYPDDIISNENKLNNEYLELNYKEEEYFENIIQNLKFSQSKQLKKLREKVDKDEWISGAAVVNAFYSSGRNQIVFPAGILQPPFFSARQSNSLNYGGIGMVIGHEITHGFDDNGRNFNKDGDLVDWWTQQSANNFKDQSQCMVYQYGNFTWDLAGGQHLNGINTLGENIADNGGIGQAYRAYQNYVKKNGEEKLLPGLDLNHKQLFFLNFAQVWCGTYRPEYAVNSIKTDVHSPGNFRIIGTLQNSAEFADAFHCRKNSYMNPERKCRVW
Nature of the experiment: Enkephalinase fluorometric assay with substrate dansyl-D-AlaGly(p-nitro)PheGly. It is filed as biochemical. The conditions noted are these: substrate of enkephalinase; 50 mM HEPES buffer pH 7.4, 25° C. The text has this: Enkephalinase is partially purified from rat kidney. The enzyme is extracted from the microvilli fraction by using Triton X-100 according to the method of Malfroy and Schwartz [J. Biol. Chem. 259, 14365-14370 (1984)] or by using a proteolytic treatment according to the method of Almenoff and Orlowski [Biochem. 22, 590-599 (1983)]. The enzyme is further purified by anion exchange chromatography (Mono Q™ column, Pharmacia) using a Pharmacia FPLC system. The enzyme activity may be measured by the fluorometric methods of Florentin et al. [Anal. Biochem. 141, 62-69 (1984)] or of Almenoff and Orlowski [J. Neurochemistry 42, 151-157 (1984)]. The enzyme is assayed in 50 mM HEPES buffer (pH 7.4) in a 3.0 mL reaction volume containing 12 μM of the substrate dansyl-D-AlaGly(p-nitro)PheGly (Km =40 μM) at 25° C. The substrate (and inhibitor) is added from a concentrated stock solution in DMSO (up to 0.1 mL DMSO final volume). The enzyme in a small volume (approximately 0.1 μg of FPLC purified protein) is added to initiate the reaction and the rate of fluorescence increase is recorded continuously using a fluorometer (excitation at 339 nm, emission at 562 nm).

Where a SMILES comes first, the peptide text is derived from it. [ ]: non-standard residue; d: D form. The star is where a group is joined. Phe(4-NO2) = N[C@@H](Cc1ccc([N+](=O)[O-])cc1)C(=O)O; Dansyl = CN(C)c1cccc2c(S(=O)(=O)*)cccc12

Take `C[C@@H](NS(=O)(=O)c1cccc2c(N(C)C)cccc12)C(=O)NCC(=O)N[C@@H](Cc1ccc([N+](=O)[O-])cc1)C(=O)NCC(=O)O` [dansyl-D-AlaGly(p-nitro)PheGly] (Dansyl-[dA]G[Phe(4-NO2)]G-OH): the Km (in general, the substrate concentration at which the rate is half of its maximum) worked out at 40 µM.
